The source of these data is the METLIN SMRT retention time set (Domingo-Almenara et al. 2019).

SMILES strings stand for the structures.

This series in a line: gradient 5% acetonitrile 3 min, to 50% in 2 min, to 85% in 15 min, held 3 min, 100 µL/min. Conditions: column: Zorbax Extend-C18 2.1 x 50 mm; eluents: water / acetonitrile, 0.1% formic acid. Put shortly:
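Each retention time is based on an adduct peak selected computationally and verified by manual inspection. Measurements used HPLC–quadrupole time-of-flight mass spectrometry in positive and negative ionization mode on mixtures of ~100 pure standards. Chromatography ran on a Zorbax Extend-C18 column (2.1 × 50 mm, 1.8 μm) at 100 μL/min with water and acetonitrile, each containing 0.1% formic acid, and dead and dwell volumes of 40 μL and 900 μL.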
In the case of `CN1CCN(CCNC(=O)C2CCc3sc(C(=O)N4CCCCCC4)cc3C2)CC1` (stereo not given), the RP-LC retention time was determined as 601 s. As for `O=C(NC1CCCc2ccccc21)c1ccc2c(c1)OCCCO2` (stereo not given), the RP-LC retention time worked out at 958 s. For `COc1cccc(CNC(=O)C2(C)CCCN(C(=O)Nc3ccccc3Cl)C2)c1` (stereo not given), the RP-LC retention time was determined as 919 s. Molecule `CN(C(=O)CSc1nc(-c2ccccc2)no1)c1ccc(F)cc1` had an RP-LC retention time of 1020 s. To `Cc1ccn2cc(C(=O)NCc3cc(F)ccc3F)nc2c1` belongs 657 s; to `Cc1cc(C)cc(N2CC(C)Cn3c2nc2c3c(=O)n(CC(=O)O)c(=O)n2C)c1` (stereo not given), 826 s. On to `CC(=O)Nc1ccc(S(=O)(=O)NCC2CCN(Cc3cccs3)CC2)c(C)c1`, for which the RP-LC retention time is 547 s. To `Cc1cc(-c2ccc3c(c2)CCN3C(=O)C2CCCO2)on1` (stereo not given) belongs 767 s; to `CC1CCN(c2cc3c(cc2NC(=O)c2ccco2)n(C)c(=O)c(=O)n3C)CC1`, 632 s; to `O=C(NCCC1=CCCCC1)C1CCN(Cc2cc3ccccc3n2Cc2ccccc2)CC1`, 880 s.

`CCc1ccc(NC(=O)N2CCc3nc(-c4ccccc4)ncc3C2)cc1` registered an RP-LC retention time of 1010 s. Next, `C=CCn1c(=O)c2ccccc2n(Cc2nc(-c3ccc(OC)cc3)no2)c1=O`: 1020 s; `CN1CCCCCCN(C(=O)c2cccn2C)[C@H]2CCC[C@H]2C1=O`: 816 s; `CC1CCN(C(=O)c2cc3c(s2)CCN(C(=O)c2ccc(Cl)cc2)C3)CC1`: 987 s. In turn, `CC(C)Oc1ccc(CNS(=O)(=O)c2cc(-c3nc(C(C)(C)C)cs3)cs2)cc1` displayed an RP-LC retention time of 1320 s. Turning to `Cc1cc(C)c2c(N3CCCCC3)nc(C(=O)NCCN3CCOCC3)nc2n1`, the RP-LC retention time was 550 s. To `Cn1cc(-c2ccncc2)cc1C(=O)NCc1ccccc1C(F)(F)F` belongs 672 s; to `CCCN1C(=O)Cc2ccccc2C1C(=O)N1CCOCC1` (stereo not given), 650 s; to `O=C(Nc1cnc(-c2cccc(Cl)c2)nc1)c1ccc(Br)o1`, 1140 s.

The molecule `Cc1ccc(-c2noc(CN3C(=O)C(C)Oc4ccccc43)n2)cc1` (stereo not given) displayed an RP-LC retention time of 1120 s. Next, `COc1c(C(=O)NCCN2CCCCC2C)sc2ccc(Cl)cc12` (stereo not given): 716 s. Next, `Cc1noc(C)c1CN1CCCCC1c1nc(-c2ccncc2)no1` (stereo not given): 649 s; `CN(C)[C@@H]1CN(Cc2ccc(F)c(F)c2)CC[C@@H]1CO`: 434 s. To `N#C/C(=C\c1cccnc1)c1ccc(Br)cc1` belongs 999 s. Regarding `CC(C)CCNC(=O)c1ccc2nc(CCc3ccc(NC(=O)C(C)C)cc3)[nH]c2c1`, the RP-LC retention time amounted to 676 s. To `Cc1noc(COC2CCCN(C(=O)NCCc3ccccc3)C2)n1` (stereo not given) belongs 756 s; to `Cc1cccc2nnc(N3CCCC(C(=O)Nc4ccccc4)C3)n12` (stereo not given), 680 s. Next, `CCNc1cc(N2CCC(CCC(=O)Nc3ccc4c(c3)OCCO4)CC2)ncn1`: 572 s; `CSc1ccc(-c2nc3ncccn3c2Nc2ccccc2C)cc1`: 839 s; `CCN(Cc1ccc(F)cc1)Cc1cc(=O)c2cccc(F)c2[nH]1`: 594 s.

Take `Cc1nn(-c2ccc(F)cc2)c(C)c1S(=O)(=O)N1CCC(C(=O)N2CCCC2)CC1`: the RP-LC retention time turned out to be 790 s.

`CC1=NS(=O)(=O)N(Cc2ccccc2)C=C1C(=O)OCc1noc(-c2ccc(C)c(C)c2)n1` returned an RP-LC retention time of 1220 s. Next, `CCc1ccc(NC(=O)Cn2nc3c(N4CCSCC4)nccn3c2=O)cc1`: 888 s. Next, `Cc1ccc(Cn2c(C)c(CNCc3ccco3)c(C(=O)O)c2C)cc1`: 666 s. To `Cc1ccccc1-c1csc2c(=O)n(Cc3ccc(N4CCCC4=O)cc3)cnc12` belongs 889 s. The molecule `Cc1noc(C)c1S(=O)(=O)N1CCC(c2noc(-c3cccnc3)n2)C1` (stereo not given) had an RP-LC retention time of 796 s.

`CCn1ccc2cc(S(=O)(=O)N3CCCC(C(=O)NCCC(C)C)C3)ccc21` (stereo not given) came in with an RP-LC retention time of 980 s. `Cc1ccc(-n2cc3c(N4CCCC(C(=O)NCc5ccc(Cl)cc5)C4)ncnc3n2)cc1` (stereo not given) came in with an RP-LC retention time of 750 s. Next, `O=C(CN1C(=O)CCCc2cc(S(=O)(=O)N3CCCCCC3)ccc21)Nc1ccc(F)cc1F`: 962 s; `O=C1CC(c2cccc(Cl)c2)Cc2nc(N3CCN(c4ccccc4)CC3)ncc21` (stereo not given): 1340 s.

As for `CCOc1ccc(-c2nnc3ccc(SC(C(C)=O)C(=O)N(C)C)nn23)cc1` (stereo not given), the RP-LC retention time came out at 665 s. `COc1ccc(-c2noc(-c3cccn(CC(=O)NC(C)C)c3=O)n2)cc1OC` yielded an RP-LC retention time of 688 s. Next, `Cc1cc2c(cc1S(=O)(=O)N1CCCC1C(=O)NCCc1ccccc1)OC(C)C(=O)N2` (stereo not given): 792 s. To `O=C(Nc1nnc(-c2ccc(C(F)(F)F)cc2)o1)c1cc2ccccc2o1` belongs 885 s; to `CCN(CC)C(=O)c1ccc2nc(-c3ccc(C)cc3)cn2c1`, 649 s; to `CN1C(=O)c2ccccc2Oc2ccc(C(=O)N3CCOCC3)cc21`, 675 s.

Take `O=C(NCC1CCCO1)c1cc(=O)n(Cc2ccc(Cl)cc2)c2ccccc12` (stereo not given): the RP-LC retention time was found to be 815 s. To `Cc1noc(C)c1-c1ccc(S(=O)(=O)NCCC(C)C)cc1` belongs 954 s.

The molecule `CCCNCc1ccc(-c2ccccc2)o1` yielded an RP-LC retention time of 641 s. As for `Cc1ccc(-c2nnc(-c3ccccc3Cl)o2)cc1S(=O)(=O)N1CCOCC1`, the RP-LC retention time turned out to be 969 s. Next, `COc1ccc(NC(=O)C2CCc3nc(N4CCC(C)CC4)ncc3C2)c(C)c1` (stereo not given): 747 s. To `C=CCN1C(=O)C2(c3ccccc31)c1[nH]c3ccccc3c1CCN2C(C)=O` (stereo not given) belongs 836 s; to `Cc1noc(-c2cc(=O)n(CC(=O)Nc3cc(Cl)ccc3C)c3ccccc23)n1`, 942 s.

The molecule `O=C(Cn1c(=O)c2cccn2c2ccccc21)NC1CC1` came in with an RP-LC retention time of 688 s. Next, `COc1ccc(-c2cc(C(=O)NCCc3c[nH]c4ccccc34)[nH]n2)cc1`: 814 s. Take `CCOCCCNC(=O)CC1CCN(C(=O)c2[nH]c(C)cc2C)CC1`: the RP-LC retention time stood at 661 s. Next, `O=C(NC1(c2nc(-c3cccnc3)no2)CCCCC1)c1ccc(F)c(F)c1`: 963 s. To `O=C(C1CCCC1)N1CCC(c2noc(-c3ccncc3)n2)C1` (stereo not given) belongs 863 s; to `Cc1nc(-c2cc(S(=O)(=O)N3CCC(C(=O)N4CCOCC4)CC3)c(C)s2)no1`, 742 s; to `CCCN1C(=O)c2cc(S(=O)(=O)N3CCCCCC3)ccc2Oc2cccnc21`, 1180 s. For the molecule `CCS(=O)(=O)N1CCc2ccc(NC(=O)c3ccco3)cc2C1`, the RP-LC retention time was found to be 682 s. To `CC(=O)N1c2ccc(S(=O)(=O)N3CCCCC3)cc2CC1C(=O)Nc1c(C)cc(C)cc1C` (stereo not given) belongs 955 s; to `CC1=C(c2ccc(C(C)C)cc2)S(=O)(=O)N=C1N1CCC(NC(=O)CCC(C)C)CC1`, 1020 s; to `O=C1C(O)=C(S(=O)(=O)c2ccc(Cl)cc2)C(c2ccc(F)cc2)N1Cc1ccco1` (stereo not given), 972 s.

The molecule `Cn1nc(-c2nnc(-c3ccccc3)o2)c2c1CCN(S(=O)(=O)c1ccc(C(C)(C)C)cc1)C2` had an RP-LC retention time of 1150 s. Next, `Cc1cc(NC(=O)C2CCN(C(=O)c3c[nH]c4ccccc34)CC2)no1`: 639 s; `CCOC(=O)c1c(C)[nH]c(C(=O)N2CCCC(C(=O)NCCN3CCOCC3)C2)c1C` (stereo not given): 593 s; `CCN1CCC2(CC1)N=C(c1ccccc1)CC(c1cc(Cl)ccc1O)N2` (stereo not given): 621 s. As to `Cc1cc(N2CCC(NC(=O)Nc3ccc(F)cc3)C2=O)ccc1F` (stereo not given), the RP-LC retention time is 849 s.

For the molecule `COc1ccc(Cc2nc(-c3ccc4c(c3)nnn4CCC(=O)N3CCCC3)no2)cc1`, the RP-LC retention time was 839 s. `Cc1cc(NC(=O)c2cc(Cl)ccc2Cl)n(C(C)C)n1` had an RP-LC retention time of 775 s.

The molecule `CCN1C(=O)CN(C(=O)c2ccoc2)CC12CCOCC2` showed an RP-LC retention time of 609 s. Next, `O=C(c1nc2ccccc2s1)N(Cc1ccsc1)Cc1ccco1`: 1110 s; `CCS(=O)(=O)N1CCC2(CC1)NC(=O)N(Cc1ccc(Cl)cc1)C2=O`: 767 s; `O=C(NC1CCCC1)N1CCC[C@H]1c1nc(-c2ccccc2)n[nH]1`: 697 s.

With `O=C1COc2ccc(S(=O)(=O)N3CCC(C(=O)Nc4cccc(Br)c4)CC3)cc2N1`, the RP-LC retention time is 859 s. `COc1ccc(-c2nc(Cc3noc(-c4cccc(OC)c4)n3)c(C)o2)cc1` displayed an RP-LC retention time of 1030 s. Molecule `CCOC(=O)c1ccc2nc(NC(=O)c3ccco3)sc2c1` had an RP-LC retention time of 830 s.

Molecule `Cc1cccc(-n2c(N3CCCC(C(=O)NCc4cccs4)C3)nc3ccsc3c2=O)c1` (stereo not given) had an RP-LC retention time of 876 s. Next, `CN(C)c1ccc(C(=O)N2CCc3cn(C)c4cccc(c34)C2)cc1`: 671 s.
